Test results from patent US11092602B2, “Methods and compositions relating to proteasome inhibitor resistance” (Whitehead Institute for Biomedical Research, priority 2015, dated 2021).
Entries after “also recorded” stand apart in the source; their conditions may differ.

Tests used:
[1] = system: HepG2 cells; test: Cell viability assay (resazurin) in HepG2 cells expressing proteasome subunit shRNAs; type: cell-based, human
Text: Next, we asked if a simple reduction in the expression of 19S subunits could protect against the toxicity of proteasome inhibitors. We assembled a panel of shRNA-expressing lentiviruses targeting seventeen 19S subunits and three 20S subunits (PSMB5, PSMB7 and PSMA3). Each gene was targeted separately using four different shRNAs (FIG. 2, Table S2) and we averaged the effects on viability from these four hairpins.
For the analysis of multiple proteasome subunit knockdown 80 shRNA targeting 20 proteasome subunits (4 different shRNAs) and 13 control shRNAs (Table S2) in pLKO lentiviral vectors from the RNAi consortium shRNA library were utilized. Cells were plated in 96 wells with the volume of 100 μL media at the concentration of 2500 cells/well. 24 hours after plating media was discarded and 50 μl with 7.5-10 μg/μ1 of polybrene and 7 μl of purified virus was added. After incubation for 24 hours the media was discarded and 200 μl of fresh media with 1 μg/ml puromycin was added. Bortezomib was added where specified. pLKO lentiviral vectors from the RNAi consortium shRNA library targeting the PSMC5 and PSMD2 (Table 2) were further used to create HepG2 and T47D stably overexpressing these shRNAs by selection with puromycin 1 μg/ml for one week.
Relative cell growth and survival were measured in 96-well microplate format in the shRNA experiments and in 384 well format in the drug toxicity assays, by using the fluorescent detection of resazurin dye reduction as an endpoint (544 nm excitation and 590 nm emission). 2,500 cells in 96 wells format or 1,000 cells in 384 well format were plated 24 hours before compound exposure (for 72 hours or indicated time). Each analysis was performed at least with three replicas.

[2] = system: T47D cells; test: Cell viability of T47D cells with doxycycline-inducible PSMD2 shRNA; type: cell-based, human
Method: T47D cells harboring a doxycycline inducible control shRNA (GFP) or a doxycycline-inducible PSMD2 shRNA (TurboRFP) were incubated with doxycycline for 3 days. Cells were then split and grown in the absence of Dox and proteasome inhibitors were then added at various concentrations. Cells were maintained in culture and then counted.
For the generation of the T47D Tet-inducible PSMD2 knockdown cell line—the TRIPZ vector with an inducible shRNA targeting PSMD2 was purchased from Dharmacon (clone V3THS_403760). It was introduced to the T47D cells according to manufactures protocol and cells were selected with puromycin 1 μg/ml for one week. The cells were exposed to doxycycline for 24 hours and cells were FACS sorted for the top 10% of most RFP expressing cells (highest expression of shRNA). The cells were further cultured in the absence of doxycycline and PSMD2 knockdown was induced as specified in the relevant Examples.

[3] = system: T47D cells; test: Competition co-culture of shPSMD2-RFP and shControl-GFP T47D cells, FACS and microscopy; type: cell-based, human; details: 48 hours
Method: We created two cell lines—one line that expresses red fluorescent protein (turboRFP) and the doxycycline-inducible PSMD2-targeting shRNA and another line that expresses green fluorescent protein (GFP) and a doxycycline-inducible control shRNA (FIG. 6A). First, we induced shRNA expression with doxycycline for 48 hours. After recovery, we mixed shPSMD2-RFP and shControl-GFP cells at different ratios (either 1:1, 1:2, 1:5 or 1:10), adding the cells with reduced PSMD2 as the minority subpopulation. Twenty-four hours after plating, we treated these mixed populations of cells for 48 hours with increasing concentrations of bortezomib (5, 7.5 or 10 nM). We allowed the cells to recover in the absence of bortezomib and then we quantified the red and green cells by FACS analysis (FIG. 6A) and captured representative images by fluorescence microscopy (FIG. 6B).
The experiment described in Example 10 was repeated with minor differences using a panel of different proteasome inhibitors: MLN2238, MLN9708, and oprozomib T47D cells harboring a doxycycline inducible control shRNA (GFP) or a doxycycline-inducible PSMD2 shRNA (TurboRFP) were incubated with doxycycline for 3 days. Cells were collected, counted, and plated at a 1:10 ratio of TurboRFP-expressing PSMD2 shRNA cells/GFP expression control shRNA cells in the absence of Dox. Proteasome inhibitors were added at the specified concentrations and cells were maintained in culture. Cells were allowed to recover in the absence of the proteasome inhibitor and then analyzed by FACS (FIG. 8B, top) or visualized by microscopy (FIG. 8B, bottom). In the absence of proteasome inhibitors, the initial plating ratio of these cells (1:10) was maintained over the duration of the experiment (FIG. 8B). […] The effect was concentration-dependent in that higher concentrations elicited more substantial shifts.
cells were trypsinized in 100 μL Accumax® solution and further diluted into 100 μl PBSx1. The number of cells with red or green fluorescent proteins was measured by MACSQuant® VYB according to manufactures protocol. Images of RFP and GFP were created by overlaying images using Fiji software.

[4] = system: IMR32 and Kelly cells; test: CellTiter-Glo viability of IMR32 and Kelly neuroblastoma cells; type: cell-based; details: 0.001 um to 0.100 um; 72 hours
Method: IMR32 and Kelly cells were each cultured in the presence of bortezomib at concentrations ranging from 0.001 um to 0.100 um. […] The fold viability relative to culture in the absence of bortezomib was determined for each cell line.
The fold viability relative to culture in the absence of the compound was determined for each cell line.

[5] = biological target: β5-subunit (Homo sapiens, UniProt P28074); details: cited from earlier work

CC(C)C[C@H](NC(=O)[C@H](Cc1ccccc1)NC(=O)c1cnccn1)B(O)O [bortezomib]
proliferation of lines stably expressing shRNA targeting PSMC5 or PSMD2 ([1]; HepG2, 12 nM bortezomib): continued proliferating | concentration of bortezomib that completely inhibited the proliferation of control cells ([1]; HepG2 control cells): 12 nM | EC50 values increased versus parental line ([1]; HepG2 lines with shRNA-driven modest reduction in PSMD2, 4 days): three to six | resistance upon doxycycline-induced reduction of PSMD2 ([2]; PSMD2 shRNA versus control): significantly increased resistance; also recorded: increase in resistance | resistance of cells harboring the PSMD2 shRNA versus parental line (EC50) ([2]; doxycycline 3 days, 96 hour culture): considerably more resistant | shift of surviving cell populations towards shPSMD2-RFP cells ([3]; 5 nM, ratios 1:1, 1:2, 1:5, 1:10): substantially shifted the populations of surviving cells | shift of surviving cell populations towards shPSMD2-RFP cells ([3]; 7.5 nM and 10 nM): even more substantial shifts | resistance of IMR32 cells relative to Kelly cells [4]: increased resistance | potency of inhibition of the β5-subunit [5]: low nanomolar
